The values below come from US20240101546A1, “HETEROARYL-ACETYLENES, PHARMACEUTICAL COMPOSITIONS THEREOF, AND THEIR THERAPEUTIC APPLICATIONS” (Eubulus Biotherapeutics Inc., priority 2020, published 2024).

The test system of this assay is hepatocellular carcinoma cell line Hub-7. Nature of the assay: Cell proliferation assay, Hub-7 (CELL-TITER GLO). The following applies: Hub-7 cells, 24 h incubation, cell viability by CELL-TITER GLO, top concentration 10 μM; read-out: EC50, Inhibition of Hub-7 Cell Proliferation. In kind it is cell-based. An outline of the steps:
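Hub-7 cells, 4,000 per well, seeded overnight, then exposed 24 h to compound from 10 μM top in 3-fold serial dilution. Viability read by CELL-TITER GLO luminescence; EC50 derived and binned into potency categories.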
For `C#Cc1csc(C(=O)NCc2ccccc2)n1` [Compound C145, N-Benzyl-4-ethynylthiazole-2-carboxamide], the EC50 was > 5 µM.
For `C#Cc1nc(C(=O)NCc2ccc(-c3cncs3)cc2)cs1` [Compound C61, 2-Ethynyl-N-(4-(thiazol-5-yl)benzyl)thiazole-4-carboxamide], the EC50 lay in the range of 0.2 to 1 µM.
The result for `C#Cc1nc(C(=O)NCCc2ccc(-c3cccc4c3C(=O)NC4)cc2)cs1` [Compound C13, 2-Ethynyl-N-(4-(3-oxoisoindolin-4-yl)phenethyl)thiazole-4-carboxamide] reads 0.2 to 1 µM.
`C#Cc1nc(C(=O)NCCc2cccc(-c3cccc4c3CC(=O)N4C)c2)cs1` [Compound C26, 2-Ethynyl-N-(3-(1-methyl-2-oxoindolin-4-yl)phenethyl)thiazole-4-carboxamide]: the EC50 was 1 to 5 µM.
As to `C#Cc1nc(C(=O)N[C@H]2CCc3ccccc32)cs1` [Compound C71, (S)—N-(2,3-Dihydro-1H-inden-1-yl)-2-ethynylthiazole-4-carboxamide], the EC50 lay within 0.2 to 1 µM.
To `C#Cc1nc(C(=O)NCCc2cccc(-c3cccc4[nH]ncc34)c2)cs1` [Compound C39, N-(3-(1H-Indazol-4-yl)phenethyl)-2-ethynylthiazole-4-carboxamide] belongs 0.2 to 1 µM; to `C#Cc1nc(C(=O)N2CCN(c3ccc(-c4cc(C(=O)NC)cc5ncsc45)cc3)CC2)cs1` [Compound D3, 7-(4-(4-(2-Ethynylthiazole-4-carbonyl)piperazin-1-yl)phenyl)-N-methylbenzo[d]thiazole-5-carboxamide], 0.2 to 1 µM; to `C#Cc1nc(C(=O)NCCc2ccc(-c3cccc4scnc34)cc2)cs1` [Compound C31, N-(4-(Benzo[d]thiazol-4-yl)phenethyl)-2-ethynylthiazole-4-carboxamide], 0.2 to 1 µM.
Turning to `C#Cc1nc(C(=O)N2CCN(c3ccc(-c4cccc5ncsc45)cc3C#N)CC2)cs1` [Compound D12, 5-(Benzo[d]thiazol-7-yl)-2-(4-(2-ethynylthiazole-4-carbonyl)piperazin-1-yl)-benzonitrile], the EC50 was ≤ 0.2 µM.
As for `C#Cc1nc(C(=O)NCc2ncccc2Cl)cs1` [Compound C109, N-((3-Chloropyridin-2-yl)methyl)-2-ethynylthiazole-4-carboxamide], the EC50 was in the range of 1 to 5 µM.
On to `C#Cc1nc(C(=O)NCCc2ccc([N+](=O)[O-])cc2)cs1` [Compound C129, 2-Ethynyl-N-(4-nitrophenethyl)thiazole-4-carboxamide], for which the EC50 is ≤ 0.2 µM.
For `C#Cc1nc(C(=O)N2CCN(c3ccc(-c4cc(C(=O)N(C)C)cc5ncsc45)cc3)CC2)cs1` [Compound D6, 7-(4-(4-(2-Ethynylthiazole-4-carbonyl)piperazin-1-yl)phenyl)-N,N-dimethyl-benzo[d]thiazole-5-carboxamide], the EC50 was ≤ 0.2 µM.
On to `C#Cc1nc(C(=O)NCCc2ccccc2C#N)cs1` [Compound C45, N-(2-Cyanophenethyl)-2-ethynylthiazole-4-carboxamide], for which the EC50 fell in the range of 1 to 5 µM.
On to `C#Cc1nc(C(=O)NCCc2cccc(-c3cccc4c3ccn4C)c2)cs1` [Compound C35, 2-Ethynyl-N-(3-(1-methyl-1H-indol-4-yl)phenethyl)thiazole-4-carboxamide], for which the EC50 is 0.2 to 1 µM.
For `C#Cc1nc(C(=O)Nc2cccc3[nH]ncc23)cs1` [Compound C130, 2-Ethynyl-N-(1H-indazol-4-yl)thiazole-4-carboxamide], the EC50 fell in the range of 1 to 5 µM.
In the case of `C#Cc1nc(C(=O)NCCc2ccc(C(=O)OC)cc2)cs1` [Compound C84, Methyl 4-(2-(2-ethynylthiazole-4-carboxamido)ethyl)benzoate], the EC50 lay in the range of 1 to 5 µM.
On to `C#Cc1nc(NC(=O)NCc2ccc(-c3cccc(C(=O)NC)c3)cc2)cs1` [Compound A14, 4′-((3-(2-Ethynylthiazol-4-yl)ureido)methyl)-N-methyl-[1,1′-biphenyl]-3-carboxamide], for which the EC50 was in the range of 0.2 to 1 µM.
Regarding `C#Cc1nc(NC(=O)NCc2ccc(-c3ccccc3)cc2)cs1` [Compound A8, 1-([1,1′-Biphenyl]-4-ylmethyl)-3-(2-ethynylthiazol-4-yl)urea], the EC50 is ≤ 0.2 µM.
As for `C#Cc1nc(NC(=O)N2CCc3cc(-c4cccc5ncsc45)ccc3C2)cs1` [Compound B3, 6-(Benzo[d]thiazol-7-yl)-N-(2-ethynylthiazol-4-yl)-3,4-dihydroisoquinoline-2(1H)-carboxamide], the EC50 is 0.2 to 1 µM.
With `C#Cc1nc(C(=O)NCc2ccc3ncccc3c2)cs1` [Compound C96, 2-Ethynyl-N-(quinolin-6-ylmethyl)thiazole-4-carboxamide], the EC50 lay within 1 to 5 µM.
Turning to `C#Cc1nc(C(=O)NCc2cccc(-c3cc[nH]n3)c2)cs1` [Compound C60, N-(3-(1H-Pyrazol-3-yl)benzyl)-2-ethynylthiazole-4-carboxamide], the EC50 is 0.2 to 1 µM.
Consider `C#Cc1nc(C(=O)N[C@H](C)c2cccc(Cl)c2)cs1` [Compound C67, (R)—N-(1-(3-Chlorophenyl)ethyl)-2-ethynylthiazole-4-carboxamide], for which the EC50 lay within 1 to 5 µM.
As to `C#Cc1nc(C(=O)N[C@@H]2CCc3ccccc32)cs1` [Compound C72, (R)—N-(2,3-Dihydro-1H-inden-1-yl)-2-ethynylthiazole-4-carboxamide], the EC50 is 0.2 to 1 µM.
In the case of `C#Cc1nc(C(=O)NCc2ccc(C(=O)OC)cc2)cs1` [Compound C117, Methyl 4-((2-ethynylthiazole-4-carboxamido)methyl)benzoate], the EC50 was in the range of 0.2 to 1 µM.
To `C#Cc1nc(C(=O)NCc2cccc(C(=O)OC)c2)cs1` [Compound C124, Methyl 3-((2-ethynylthiazole-4-carboxamido)methyl)benzoate] belongs 0.2 to 1 µM; to `C#Cc1nc(C(=O)NCCc2ccc(-c3cccc4ncsc34)cc2)cs1` [Compound C34, N-(4-(Benzo[d]thiazol-7-yl)phenethyl)-2-ethynylthiazole-4-carboxamide], ≤ 0.2 µM; to `C#Cc1nc(C(=O)NCc2ccccc2)c[nH]1` [Compound C111, N-Benzyl-2-ethynyl-1H-imidazole-4-carboxamide], > 5 µM.
As to `C#Cc1nc(C(=O)NCCc2ccc(O)c(OC)c2)cs1` [Compound C122, 2-Ethynyl-N-(4-hydroxy-3-methoxyphenethyl)thiazole-4-carboxamide], the EC50 lay in the range of 1 to 5 µM.
As to `C#Cc1nc(C(=O)NCc2ccccc2)cs1` [Compound C148, N-Benzyl-2-ethynylthiazole-4-carboxamide], the EC50 lay within 1 to 5 µM.
The result for `C#Cc1nc(C(=O)NCCc2ccc(-c3cccc4ncncc34)cc2)cs1` [Compound C24, 2-Ethynyl-N-(4-(quinazolin-5-yl)phenethyl)thiazole-4-carboxamide] reads ≤ 0.2 µM; that for `C#Cc1nc(C(=O)NCc2cccc(-c3ccccc3)c2)cs1` [Compound C115, N-([1,1′-Biphenyl]-3-ylmethyl)-2-ethynylthiazole-4-carboxamide], ≤ 0.2 µM.
Turning to `C#Cc1nc(C(=O)N2CCCCC2C(=O)OC)cs1` (centres unmarked) [Compound D37, Methyl 1-(2-ethynylthiazole-4-carbonyl)piperidine-2-carboxylate], the EC50 was > 5 µM.
Regarding `C#Cc1nc(C(=O)N2CCC(c3ccc(-c4cccc5ncsc45)cc3)CC2)cs1` [Compound D18, (4-(4-(Benzo[d]thiazol-7-yl)phenyl)piperidin-1-yl)(2-ethynylthiazol-4-yl)-methanone], the EC50 was ≤ 0.2 µM.
On to `C#Cc1nc(NC(=O)NCc2ccc(-c3cccc4ncn(C)c(=O)c34)cc2)cs1` [Compound A11, 1-(2-Ethynylthiazol-4-yl)-3-(4-(3-methyl-4-oxo-3,4-dihydroquinazolin-5-yl)-benzyl)urea], for which the EC50 is 0.2 to 1 µM.
On to `C#Cc1nc(C(=O)N2CCC(c3ccc(-c4cccc5[nH]ncc45)cc3)CC2)cs1` [Compound D21, (4-(4-(1H-Indazol-4-yl)phenyl)piperidin-1-yl)(2-ethynylthiazol-4-yl)methanone], for which the EC50 was ≤ 0.2 µM.
With `C#Cc1nc(C(=O)NCc2ccccc2)co1` [Compound C142, N-Benzyl-2-ethynyloxazole-4-carboxamide], the EC50 was > 5 µM.
As to `C#Cc1ncc(C(=O)N2CCN(c3ccc(-c4cccc5scnc45)cc3)CC2)s1` [Compound D8, (4-(4-(Benzo[d]thiazol-4-yl)phenyl)piperazin-1-yl)(2-ethynylthiazol-5-yl)methanone], the EC50 lay within 0.2 to 1 µM.
On to `C#Cc1nc(C(=O)N2CCN(c3ccc(-c4cc(C(=O)OC)cc5c4cnn5C)cc3)CC2)cs1` [Compound D2, Methyl 4-(4-(4-(2-ethynylthiazole-4-carbonyl)piperazin-1-yl)phenyl)-1-methyl-1H-indazole-6-carboxylate], for which the EC50 was ≤ 0.2 µM.
As to `C#Cc1nc(C(=O)NCc2ccc3c(c2)OCCO3)cs1` [Compound C86, N-((2,3-Dihydrobenzo[b][1,4]dioxin-6-yl)methyl)-2-ethynylthiazole-4-carboxamide], the EC50 is 1 to 5 µM.
Regarding `C#Cc1nc(NC(=O)C=Cc2ccccc2)cs1` [Compound E11, N-(2-Ethynylthiazol-4-yl)cinnamamide], the EC50 lay in the range of 0.2 to 1 µM.
To `C#Cc1nc(C(=O)NCc2ccc(-c3cccc4c3CC(=O)N4)cc2)cs1` [Compound C37, 2-Ethynyl-N-(4-(2-oxoindolin-4-yl)benzyl)thiazole-4-carboxamide] belongs 1 to 5 µM; to `C#Cc1nc(C(=O)N2CCN(c3cccc(-c4cccc5ncsc45)c3)CC2)cs1` [Compound D16, (4-(3-(Benzo[d]thiazol-7-yl)phenyl)piperazin-1-yl)(2-ethynylthiazol-4-yl)-methanone], 0.2 to 1 µM; to `C#Cc1nc(C(=O)NCc2cccc(-c3cn[nH]c3)c2)cs1` [Compound C58, N-(3-(1H-Pyrazol-4-yl)benzyl)-2-ethynylthiazole-4-carboxamide], 1 to 5 µM.
As to `C#Cc1nc(NC(=O)NCc2ccc(-c3cccc4c3S(=O)(=O)CC4=O)cc2)cs1` [Compound A3, 1-(4-(1,1-Dioxido-3-oxo-2,3-dihydrobenzo[b]thiophen-7-yl)benzyl)-3-(2-ethynyl-thiazol-4-yl)urea], the EC50 lay in the range of 1 to 5 µM.
